Results published in PMC6001238, “Iterative Chemical Engineering of Vancomycin Leads to Novel Vancomycin Analogs With a High in Vitro Therapeutic Index” (Frontiers in Microbiology, 2018).
Converted amounts (≈) assume the structure as drawn.

Legend:
[1] = system: E. faecalis VSE 1; assay: MIC, broth microdilution, vancomycin-sensitive E. faecalis (VSE 1); assay type: cell-based, Enterococcus faecalis; settings: for MIC: Enterococcus faecalis VSE 1 (vancomycin-sensitive), read-out: MIC; for MIC-fold improvement vs. vancomycin: VSE 1, ratio of MIC of vancomycin and MIC of analogue
Outline: (§1)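 Following CLSI antimicrobial susceptibility standards, organisms were tested by broth microdilution. Controls comprised ultrapure water plus broth left uninoculated. For a single condition, 10 μM vancomycin (final) accompanied the analog or control agent.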

[2] = system: E. faecalis VRE 6; assay: MIC, broth microdilution, vancomycin-resistant E. faecalis VRE 6 (VanA); assay type: cell-based, Enterococcus faecalis; settings: for MIC: Enterococcus faecalis VRE 6 (vancomycin-resistant), read-out: MIC; for MIC-fold improvement vs. vancomycin: VRE 6, ratio of MIC of vancomycin and MIC of analogue
Outline: as §1

[3] = system: E. faecalis VRE 53; assay: MIC, broth microdilution, vancomycin-resistant E. faecalis VRE 53 (VanA); assay type: cell-based, Enterococcus faecalis; settings: for MIC: Enterococcus faecalis VRE 53 (vancomycin-resistant), read-out: MIC; for MIC-fold improvement vs. vancomycin: VRE 53, ratio of MIC of vancomycin and MIC of analogue
Outline: as §1

[4] = system: E. faecalis VRE 29; assay: MIC, broth microdilution, vancomycin-resistant E. faecalis VRE 29 (VanA); assay type: cell-based, Enterococcus faecalis; settings: for MIC: Enterococcus faecalis VRE 29 (vancomycin-resistant), read-out: MIC
Outline: as §1

[5] = system: E. faecalis VRE 37; assay: MIC, broth microdilution, vancomycin-resistant E. faecalis VRE 37 (VanA); assay type: cell-based, Enterococcus faecalis; settings: for MIC: Enterococcus faecalis VRE 37 (vancomycin-resistant), read-out: MIC; for MIC-fold improvement vs. vancomycin: VRE 37, ratio of MIC of vancomycin and MIC of analogue
Outline: as §1

[6] = system: Murine leukemia (L1210) cells; assay: Cytostatic activity, L1210 cell proliferation; assay type: cell-based; settings: mean ± SD of three experiments; highest concentration tested 250 µM; 2 days; read-out: Toxicity (IC50) L1210
Outline: (§2)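 Suspensions (300,000–500,000 cells/mL) combined with equal volumes of diluted compound; 37°C; L1210 2 d / CEM 3 d / HeLa 4 d; counted by Coulter counter; IC50 vs untreated wells.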

[7] = system: human T-lymphocyte (CEM) cells; assay: Cytostatic activity, CEM cell proliferation; assay type: cell-based; settings: mean ± SD of three experiments; highest concentration tested 250 µM; 3 days; read-out: Toxicity (IC50) CEM
Outline: as §2

[8] = system: human cervix carcinoma (HeLa) cells; assay: Cytostatic activity, HeLa cell proliferation; assay type: cell-based; settings: mean ± SD of three experiments; highest concentration tested 250 µM; 4 days; read-out: Toxicity (IC50) HeLa
Outline: as §2

[9] = system: L1210, CEM and HeLa cell lines; assay: Cytostatic activity, average or summary over L1210, CEM and HeLa; assay type: cell-based; settings: average of L1210, CEM and HeLa; read-out: Toxicity (IC50) Average
Outline: as §2

[10] = system: S. aureus VSSA (ATCC 6538); assay: MIC, broth microdilution, vancomycin-sensitive S. aureus (VSSA/MSSA, ATCC 6538); assay type: cell-based, Staphylococcus aureus; settings: for MIC: Staphylococcus aureus VSSA, read-out: MIC; for MIC-fold improvement vs. vancomycin: VSSA, ratio of MIC of vancomycin and MIC of analogue
Outline: as §1

[11] = system: S. aureus VISA/HIP5827; assay: MIC, broth microdilution, vancomycin-intermediate S. aureus VISA HIP5827; assay type: cell-based, Staphylococcus aureus; settings: for MIC: Staphylococcus aureus VISA/HIP5827, read-out: MIC; for MIC-fold improvement vs. vancomycin: VISA/HIP5827, ratio of MIC of vancomycin and MIC of analogue
Outline: as §1

[12] = system: S. aureus VRSA; assay: MIC, broth microdilution, vancomycin-resistant S. aureus (VRSA); assay type: cell-based, Staphylococcus aureus; settings: for MIC: Staphylococcus aureus VRSA, read-out: MIC; for MIC-fold improvement vs. vancomycin: VRSA, ratio of MIC of vancomycin and MIC of analogue
Outline: as §1

[13] = system: MRSA KS2; assay: MIC, broth microdilution, MRSA KS2; assay type: cell-based, Staphylococcus aureus; settings: for MIC-fold improvement vs. vancomycin: MRSA KS2, ratio of MIC of vancomycin and MIC of analogue; for MIC: Staphylococcus aureus MRSA KS2, read-out: MIC
Outline: as §1

[14] = system: MRSA KS6; assay: MIC, broth microdilution, MRSA KS6; assay type: cell-based, Staphylococcus aureus; settings: for MIC-fold improvement vs. vancomycin: MRSA KS6, ratio of MIC of vancomycin and MIC of analogue; for MIC: Staphylococcus aureus MRSA KS6, read-out: MIC
Outline: as §1

[15] = system: MRSA KS89; assay: MIC, broth microdilution, MRSA KS89; assay type: cell-based, Staphylococcus aureus; settings: for MIC-fold improvement vs. vancomycin: MRSA KS8, ratio of MIC of vancomycin and MIC of analogue; for MIC: Staphylococcus aureus MRSA KS8, read-out: MIC
Outline: as §1

[16] = system: MRSA KS1; assay: MIC, broth microdilution, MRSA KS1; assay type: cell-based, Staphylococcus aureus; settings: for MIC-fold improvement vs. vancomycin: MRSA KS1, ratio of MIC of vancomycin and MIC of analogue; for MIC: Staphylococcus aureus MRSA KS1, read-out: MIC
Outline: as §1

Compound: CCc1ccc(NC(=O)CNC(=O)[C@H]2NC(=O)[C@H]3NC(=O)[C@H](NC(=O)[C@@H]4NC(=O)[C@H](CC(N)=O)NC(=O)[C@H](NC(=O)[C@@H](CC(C)C)NC)[C@H](O)c5ccc(c(Cl)c5)Oc5cc4cc(c5O[C@@H]4O[C@H](CO)[C@@H](O)[C@H](O)[C@H]4O[C@H]4C[C@](C)(N)[C@H](O)[C@H](C)O4)Oc4ccc(cc4Cl)[C@H]3O)c3ccc(O)c(c3)-c3c(O)cc(O)cc32)cc1 [Vanc-13]
- MIC [1]: 0.39 µM (≈ 0.628 µg/mL)
- MIC-fold improvement vs. vancomycin [1]: 4
- MIC [2]: 12.5 µM (≈ 20.1 µg/mL)
- MIC-fold improvement vs. vancomycin [2]: 16
- MIC [3]: 12.5 µM (≈ 20.1 µg/mL)
- MIC-fold improvement vs. vancomycin [3]: 32
- MIC [4]: 12.5 µM (≈ 20.1 µg/mL)
- MIC [5]: 3.13 µM (≈ 5.04 µg/mL)
- MIC-fold improvement vs. vancomycin [5]: 256
- IC50 [6]: > 250 µM
- IC50 [7]: > 250 µM
- IC50 [8]: 149 ± 6 µM
- IC50 [9]: 216 µM
- MIC [10]: 0.39 µM (≈ 0.628 µg/mL)
- MIC-fold improvement vs. vancomycin [10]: 2
- MIC [11]: 0.39 µM (≈ 0.628 µg/mL)
- MIC-fold improvement vs. vancomycin [11]: 16
- MIC [12]: 3.13 µM (≈ 5.04 µg/mL)
- MIC-fold improvement vs. vancomycin [12]: 32
- MIC-fold improvement vs. vancomycin [13]: 4
- MIC [13]: 0.20 µM (≈ 0.322 µg/mL)
- MIC-fold improvement vs. vancomycin [14]: 2
- MIC [14]: 0.39 µM (≈ 0.628 µg/mL)
- MIC-fold improvement vs. vancomycin [15]: 2
- MIC [15]: 0.39 µM (≈ 0.628 µg/mL)
- MIC-fold improvement vs. vancomycin [16]: 2
- MIC [16]: 0.39 µM (≈ 0.628 µg/mL)

Compound: CN[C@H](CC(C)C)C(=O)N[C@H]1C(=O)N[C@@H](CC(N)=O)C(=O)N[C@H]2C(=O)N[C@H]3C(=O)N[C@H](C(=O)N[C@H](C(=O)NCCNC(=O)CC(c4ccccc4)c4ccccc4)c4cc(O)cc(O)c4-c4cc3ccc4O)[C@H](O)c3ccc(c(Cl)c3)Oc3cc2cc(c3O[C@@H]2O[C@H](CO)[C@@H](O)[C@H](O)[C@H]2O[C@H]2C[C@](C)(N)[C@H](O)[C@H](C)O2)Oc2ccc(cc2Cl)[C@H]1O [Vanc-47]
- MIC [1]: 0.78 µM (≈ 1.33 µg/mL)
- MIC-fold improvement vs. vancomycin [1]: 2
- MIC [2]: 6.25 µM (≈ 10.6 µg/mL)
- MIC-fold improvement vs. vancomycin [2]: 32
- MIC [3]: 50 µM (≈ 85 µg/mL)
- MIC-fold improvement vs. vancomycin [3]: 8
- MIC [4]: 25 µM (≈ 42.5 µg/mL)
- MIC-fold improvement vs. vancomycin ([4]; VRE 29, ratio of MIC of vancomycin and MIC of analogue): 16
- MIC [5]: 25 µM (≈ 42.5 µg/mL)
- MIC-fold improvement vs. vancomycin [5]: 16
- IC50 [6]: ≥ 250 µM
- IC50 [7]: 240 ± 4 µM
- IC50 [8]: 106 ± 14 µM
- IC50 [9]: 199 µM
- MIC [10]: 0.78 µM (≈ 1.33 µg/mL)
- MIC-fold improvement vs. vancomycin [10]: 1
- MIC [11]: 1.56 µM (≈ 2.65 µg/mL)
- MIC-fold improvement vs. vancomycin [11]: 4
- MIC [12]: 3.13 µM (≈ 5.32 µg/mL)
- MIC-fold improvement vs. vancomycin [12]: 32
- MIC-fold improvement vs. vancomycin [13]: 2
- MIC [13]: 0.39 µM (≈ 0.663 µg/mL)
- MIC-fold improvement vs. vancomycin [14]: 0.25
- MIC [14]: 3.13 µM (≈ 5.32 µg/mL)
- MIC-fold improvement vs. vancomycin [15]: 2
- MIC [15]: 0.39 µM (≈ 0.663 µg/mL)
- MIC-fold improvement vs. vancomycin [16]: 2
- MIC [16]: 0.39 µM (≈ 0.663 µg/mL)
